Source: US20160355782A1, “METHOD FOR ENHANCING DIFFERENTIATION OF DOPAMINERGIC NEURONS” (Buddhist Tzu Chi Medical Foundation, priority 2015, published 2016)

Test system: midbrain explants
Assay: Midbrain explant cultures, TH+ cell numbers
Type: cell-based, rat
Settings: without exogenous UCN
Method: Midbrain explants were dissected from E13.5 embryos by the method known by a person skilled in the art, for example as the protocol described by Baizabal and Covarrubias (2009) and performed with some modifications.
The dorsal midline of the explants was cut and the tissue was placed on porous (0.4 μm) transparent membrane inserts (25-mm in diameter, Nunc, Roskilde, Denmark) with the ventricular surface facing up. Inserts were then placed into six-well culture plates. Each well contained 1.5 mL of MEM medium supplemented with 10% FBS, 100 U/mL penicillin, and 100 μg/mL streptomycin. Explants were incubated at 37° C. with 5% CO2 for 4 hours, after which the explants were incubated in a serum-free DMEM/F12/N2 medium with or without UCN for 3 days. Midbrain explants were then fixed with 4% paraformaldehyde and immuno-histochemical analysis was performed.

[1] = CP-376395 in combination with astressin 2B

Row | Compound | TH+ cell numbers in the VM of midbrain explants [1] | TH+ cell numbers in the VM of midbrain explants (astressin)
1 | CCC(CC)Nc1cc(C)nc(Oc2c(C)cc(C)cc2C)c1C [CP-376395] | reduce | –
2 | astressin | – | reduce
3 | astressin 2B | reduce | –
